In patent publication US20050064485A1, “Multiplex binding and activity assays” (priority 2003, published 2005):

Experiments:
[1] = molecular target: T1, Epidermal Growth Factor Receptor (EGFR) Tyrosine Kinase (Homo sapiens, UniProt P00533); assay: EGFR kinase multiplex FP/TR-RET library screen and follow-up titration; format: biochemical; details: two-fold dilution series
T1 construct: purchased PanVera, Madison Wis; P2628

[2] = Precipitation of poorly correlating compounds in the EGFR kinase assay; format: physicochemical; details: EGFR kinase assay conditions
[3] = molecular target: PTK labeled tracer F-ADE(pY)LIPQQS; assay: FP direct binding, antibody titrated (10 nM to 9.8 pM) against 1 nM tracer

T1 sequence (P00533 25-1210, species assumed): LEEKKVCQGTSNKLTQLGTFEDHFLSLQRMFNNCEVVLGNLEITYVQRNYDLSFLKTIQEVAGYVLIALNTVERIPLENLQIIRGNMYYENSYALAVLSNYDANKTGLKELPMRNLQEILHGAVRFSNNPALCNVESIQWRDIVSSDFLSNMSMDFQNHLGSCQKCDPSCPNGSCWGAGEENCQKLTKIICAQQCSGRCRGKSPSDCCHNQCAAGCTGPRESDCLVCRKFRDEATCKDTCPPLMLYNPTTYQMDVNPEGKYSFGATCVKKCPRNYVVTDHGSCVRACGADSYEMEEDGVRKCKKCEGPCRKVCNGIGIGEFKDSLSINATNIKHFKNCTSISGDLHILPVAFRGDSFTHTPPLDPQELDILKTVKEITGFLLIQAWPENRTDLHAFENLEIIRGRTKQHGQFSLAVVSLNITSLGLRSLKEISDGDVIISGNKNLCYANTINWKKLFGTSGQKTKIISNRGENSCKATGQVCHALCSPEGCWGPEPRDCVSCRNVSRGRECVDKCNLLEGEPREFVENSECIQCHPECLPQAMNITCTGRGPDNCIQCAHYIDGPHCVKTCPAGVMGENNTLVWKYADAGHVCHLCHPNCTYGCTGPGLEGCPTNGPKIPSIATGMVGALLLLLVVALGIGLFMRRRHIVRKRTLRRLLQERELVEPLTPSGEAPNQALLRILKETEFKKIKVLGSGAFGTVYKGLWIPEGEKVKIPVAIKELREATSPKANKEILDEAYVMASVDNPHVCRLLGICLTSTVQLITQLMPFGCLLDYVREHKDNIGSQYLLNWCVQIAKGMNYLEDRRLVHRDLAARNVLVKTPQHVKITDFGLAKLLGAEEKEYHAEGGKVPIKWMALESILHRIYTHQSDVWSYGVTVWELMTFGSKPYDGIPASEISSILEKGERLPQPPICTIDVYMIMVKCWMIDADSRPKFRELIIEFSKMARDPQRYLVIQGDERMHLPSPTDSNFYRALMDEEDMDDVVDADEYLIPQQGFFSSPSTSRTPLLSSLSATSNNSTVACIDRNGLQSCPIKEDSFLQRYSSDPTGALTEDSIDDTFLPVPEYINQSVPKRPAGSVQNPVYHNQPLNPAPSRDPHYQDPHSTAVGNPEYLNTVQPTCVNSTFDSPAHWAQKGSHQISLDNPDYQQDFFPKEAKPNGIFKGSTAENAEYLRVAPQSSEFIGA

| Compound | inhibitor on re-assay [1] | precipitation in assay [2] | further results |
| --- | --- | --- | --- |
| NC(=O)c1cc(N2CC2)c([N+](=O)[O-])cc1[N+](=O)[O-] [CB-1954, CB 1954] | neither was seen to be an inhibitor |  |  |
| CC(C)[C@@]1(NC(=O)[C@@H]2C=C3c4cccc5[nH]cc(c45)C[C@H]3N(C)C2)O[C@@]2(O)[C@@H]3CCCN3C(=O)[C@H](Cc3ccccc3)N2C1=O [Ergocristine] |  | precipitate |  |
| O=C1Nc2ccc(I)cc2/C1=C/c1cc(Br)c(O)c(Br)c1 [GW5074] |  | precipitate |  |
| Oc1ccccc1O [Pyrocatechol] | neither was seen to be an inhibitor |  |  |
| Tb-chelate labeled PY72 (anti-phosphotyrosine) IgG antibody |  |  | EC50 [3]: 1 nM |
